Results from patent publication US20080200531A1, “CDKI pathway inhibitors as inhibitors of tumor cell growth” (priority 2006, published 2008).

How the values were obtained:
[1] = tested on: CDKI-responsive endogenous genes induced by p21; assay: Q-PCR of CDKI-responsive endogenous genes, HT1080 cells with IPTG-inducible p21; format: cell-based, human; conditions: 10 μM SNX9, 20 μM SNX9-1; normalized to β-actin
Procedure: For this purpose, we developed real-time RT-PCR (Q-PCR) assays for measuring RNA levels of eleven CDKI-responsive genes. This assay uses a 96-well TurboCapture RNA extraction kit (Qiagen), in which oligo(dT) is covalently bound to the surface of the wells to allow mRNA isolation from cell lysate and cDNA synthesis in the same wells. 5 units/μl of SuperScript III reverse transcriptase (Invitrogen) was added to the wells for 1 hr for cDNA synthesis at 50° C., and 2 μl of the resulting cDNA was then used for Q-PCR analysis using SYBR Green PCR Master Mix (ABI) with ABI 7900HT Q-PCR machine.
This effect argues that the molecular target of these compounds is not a specific CDKI but rather a common downstream mediator of the transcription-inducing effects of different CDKI.

[2] = tested on: HT1080-derived reporter cell line; assay: Growth inhibition and cell death in HT1080-derived reporter cell line; format: cell-based, human; conditions: cell death detected microscopically by cell detachment
Text: The combination of p21 and SNX9-class compounds leads to both G1 and G2/M arrest, at the levels expected for the combined effects of p21 and SNX9 (FIG. 6).

CDK6/cyclinD3 (h) = molecular target: T1, CDK6/cyclinD3 (h) (Homo sapiens, UniProt Q00534); assay: Cyclin/CDK kinase assay (Upstate), CDK6/cyclinD3; format: biochemical; conditions: 100 μM, re-tested at 20 and 40 μM (SNX9, SNX2) or 10 and 20 μM (SNX9-1, SNX14)
T1 construct: purchased Upstate Biotechnology, Inc
T1 sequence (Q00534 whole entry): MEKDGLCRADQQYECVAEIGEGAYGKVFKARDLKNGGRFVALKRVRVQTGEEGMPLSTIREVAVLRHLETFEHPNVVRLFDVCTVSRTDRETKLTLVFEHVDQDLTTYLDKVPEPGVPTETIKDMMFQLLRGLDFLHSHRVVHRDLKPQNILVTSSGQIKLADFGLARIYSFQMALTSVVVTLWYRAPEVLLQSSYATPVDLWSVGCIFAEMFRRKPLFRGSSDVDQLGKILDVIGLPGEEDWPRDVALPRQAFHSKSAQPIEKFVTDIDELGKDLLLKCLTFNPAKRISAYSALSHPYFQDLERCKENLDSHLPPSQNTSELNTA
T1 sequence (P30281 whole entry partner): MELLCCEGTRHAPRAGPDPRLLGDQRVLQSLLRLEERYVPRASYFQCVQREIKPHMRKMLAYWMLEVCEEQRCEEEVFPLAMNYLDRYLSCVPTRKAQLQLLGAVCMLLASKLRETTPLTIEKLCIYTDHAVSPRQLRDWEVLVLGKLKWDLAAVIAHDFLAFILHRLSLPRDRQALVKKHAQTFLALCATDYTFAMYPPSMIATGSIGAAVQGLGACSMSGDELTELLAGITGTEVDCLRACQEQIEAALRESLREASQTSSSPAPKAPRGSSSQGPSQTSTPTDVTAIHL
Procedure: To test the above hypothesis, we determined whether several CDKI pathway inhibitors, including two SNX9 class compounds (SNX9 and SNX9-1), two compounds of a different structural class (SNX14 and SNX2) and another unrelated inhibitor (SNX35), inhibit the kinase activity of different complexes formed in vitro by purified cyclin/CDK complexes. This analysis was carried out as a service by Upstate Biotechnology, Inc.
In a final reaction volume of 25 μl, CDK6/cyclinD3 (h) (5-10 mU) is incubated with 8 mM MOPS pH 7.0, 0.2 mm EDTA, 0.1 mg/ml H1, 10 mM MgAcetate and [γ-33P-ATP] (specific activity approx. 500 cpm/pmol, 200 μM concentration). The reaction is initiated by the addition of the MgATP mix. After incubation for 40 minutes at room temperature, the reaction is stopped by the addition of 5 μl of a 3% phosphoric acid solution. 10 μl of the reaction is then spotted onto a P30 filtermat and washed three times for 5 minutes in 75 mM phosphoric acid and once in methanol prior to drying and scintillation counting.
At the first step, all the compounds were tested at 100 μM concentration. […] For SNX14 and SNX2, the relative efficacy of inhibition was CDK1>CDK2˜CDK3>CDK6. For SNX9 and SNX9-1, the order was CDK3>CDK1>CDK2>CDK6 (FIG. 12).

[3] = Range Finder Study (acute toxicity, MTD) in NCr nude mice; format: in vivo; conditions: for impact on White Blood Cell count, first iteration: up to 17.6 mg/kg intravenously; for impact on White Blood Cell count, second iteration / toxicity in the Range Finder Study: up to 70.4 mg/kg intravenously
Procedure: Male NCr nude mice, aged approximately 6-8 weeks were used for the study, which was carried out as a service by Taconic Biotechnology, Rensselaer, N.Y. Animals were maintained under virus free barrier conditions with continuous health monitoring. The administration of test materials, all data collection and disposal of study animals was in compliance with all relevant Taconic Biotechnology Standard Operating Procedures as well as The Guide for the Care and Use of Laboratory Animals. Study animals were observed upon arrival and daily throughout the study for overall health, behavior and morbidity. Test animals were subject to body weight measurement to determine dosage volumes of test articles.
The initial part of this analysis was a Range Finder Study, designed to evaluate acute toxicity and to identify the maximum tolerated dose (MTD) for therapeutic study. The Range Finder Study was performed twice. For the first iteration, 30 mice were injected intravenously with SNX9 and SNX9-1 in groups of 3 with phosphate buffered saline (PBS) only, 2.2 mg/kg SNX9, 4.4 mg/kg SNX9 8.8 mg/kg SNX9, 17.6 mg/kg SNX9, 80% PBS: 20% DMSO, 2.2 mg/kg SNX9-1, 4.4 mg/kg SNX9-1 8.8 mg/kg SNX9-1, 17.6 mg/kg SNX9-1. SNX9 was dissolved in PBS and SNX9-1 was dissolved in 80% PBS:20% DMSO. The volume injected per animal was approximately 0.1 ml/injection. […] All other animals appeared healthy and thrived for the duration of the 3 day period of observation, and their general health and body weight were assessed. For all the mice, there was no significant weight change (see Table 4). At the end of the 3 day observation period all the mice were euthanized and a terminal blood sample was collected via cardiac puncture. These blood samples were analyzed for complete blood count evaluation. […] A slight elevation of Red Blood Cell count was detected in approximately half of the groups, although this elevation was less than a 7% increase above the upper reference range and was not considered significant. All other blood count categories placed within the reference range.
For the second iteration, 24 mice were injected intravenously with SNX9 and SNX9-1 in groups of 3 with PBS only, 17.6 mg/kg SNX9, 35.2 mg/kg SNX9, 70.4 mg/kg SNX9, 80% PBS:20% DMSO, […] SNX9-1, 35.2 mg/kg SNX9-1, 70.4 mg/kg SNX9-1. […] All other animals were healthy for the duration of the 3 day period during which the animals were observed and their general health and body weight were assessed. For all the mice, there was no significant weight change (see Table 4). The average beginning weight for the mice in the second iteration was 23.7 g±1.73. After the 3 day observation period all the mice were euthanized and a terminal blood sample was collected via cardiac puncture. These blood samples were analyzed for complete blood count evaluation. […] A slight elevation of Red Blood Cell count was detected in approximately 7 out of eight of the groups, although this elevation was less than a 6% increase above the upper reference range and was not considered significant. All other blood count categories placed within the reference range.

SMILES: NCCc1c[nH]c2c(Cl)cc(Cl)cc12 [SNX9-1]
- induction of CDKI-responsive endogenous genes by p21 (ratio of RNA levels with and without IPTG) [1]: partially inhibit the induction of all the tested genes
- growth inhibition of the HT1080-derived reporter cell line [2]: associated with the induction of both cell death (as detected microscopically by cell detachment) and cell cycle arrest
- kinase activity of CDK6 (CDK6/cyclinD3 (h)): inhibited the kinase activities
- deaths, first iteration ([3]; 2.2 mg/kg (lowest dose) group of 3, intravenously, day one, apparently due to shock): One animal died on day one
- impact on White Blood Cell count, first iteration [3]: neither SNX9 nor SNX9-1 had a detectable impact on White Blood Cell count
- impact on White Blood Cell count, second iteration [3]: neither SNX9 nor SNX9-1 had a detectable impact on White Blood Cell count
- toxicity in the Range Finder Study [3]: complete lack of toxicity

SMILES: Cc1[nH]c2c(Cl)cccc2c1CCN [SNX9]
- induction of CDKI-responsive endogenous genes by p21 (ratio of RNA levels with and without IPTG) [1]: partially inhibit the induction of all the tested genes
- growth inhibition of the HT1080-derived reporter cell line [2]: associated with the induction of both cell death (as detected microscopically by cell detachment) and cell cycle arrest
- kinase activity of CDK6 (CDK6/cyclinD3 (h)): inhibited the kinase activities
- deaths, second iteration ([3]; 70.4 mg/kg group of 3, intravenously, shortly after dosing, likely due to shock and not compound toxicity): One animal died shortly after dosing
- impact on White Blood Cell count, first iteration [3]: neither SNX9 nor SNX9-1 had a detectable impact on White Blood Cell count
- impact on White Blood Cell count, second iteration [3]: neither SNX9 nor SNX9-1 had a detectable impact on White Blood Cell count
- toxicity in the Range Finder Study [3]: complete lack of toxicity
